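Interpolation was linear, between the two tested concentrations surrounding the appropriate level; five concentrations were tested over 48 hours in 96-well plates. Abbreviation: GI50, concentration required for 50% inhibition of growth. At the TGI there is no net growth.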
Tests used:
Experiment in all cases: NCI anticancer screen, dose series, 48 h
[1] = test system: SK-MEL-2 melanoma
[2] = test system: SN12C renal
[3] = test system: M14 melanoma
[4] = test system: CAKI-1 renal
[5] = test system: DMS 273 small cell lung
[6] = test system: LXFL 529 NSCLC
[7] = test system: DLD-1 colon
[8] = test system: SF-539 CNS
[9] = test system: HT29 colon
[10] = test system: MCF7 breast

CN1CCN(c2nc(N)c(Br)c(Cl)n2)CC1
TGI [1]: > 100 µM | TGI [2]: > 100 µM | TGI [3]: > 100 µM | TGI [4]: > 100 µM | TGI [5]: > 100 µM | TGI [6]: > 100 µM | TGI [7]: > 100 µM

CCOC(=O)C1C(=O)CC(=O)C2CCCCC21 (stereo not given)
TGI [1]: > 100 µM | TGI [2]: > 100 µM | TGI [3]: > 100 µM | TGI [8]: > 100 µM | TGI [4]: > 100 µM | TGI [5]: > 100 µM | TGI [6]: > 100 µM | TGI [7]: > 100 µM

CC(=O)OCC1OC(n2c(=S)n(-c3ccccc3)c(=O)c3cc(Br)ccc32)C(OC(C)=O)C1OC(C)=O (stereo not given)
TGI [1]: > 100 µM | TGI [2]: > 100 µM | TGI [3]: > 100 µM | TGI [8]: > 100 µM | TGI [9]: > 100 µM | TGI [4]: > 100 µM | TGI [5]: > 100 µM | TGI [6]: > 100 µM | TGI [7]: > 100 µM

CCCCOC(=O)NC(=O)c1cn(CCCOC(=O)CCCCCCCCC(=O)OCCCn2cc(C(=O)NC(=O)OCCCC)c(=O)n(C)c2=O)c(=O)n(C)c1=O
TGI [1]: > 100 µM | TGI [2]: > 100 µM | TGI [3]: > 100 µM | TGI [8]: > 100 µM | TGI [9]: > 100 µM | TGI [4]: > 100 µM | TGI [5]: > 100 µM | TGI [6]: > 100 µM | TGI [7]: > 100 µM

CC12CCc3ccccc3C1=NNC(=O)C2 (stereo not given)
TGI [1]: > 100 µM | TGI [2]: > 100 µM | TGI [3]: > 100 µM | TGI [8]: > 100 µM | TGI [9]: > 100 µM | TGI [4]: > 100 µM | TGI [5]: > 100 µM | TGI [6]: > 100 µM | TGI [7]: > 100 µM

COc1cc(O)c(C(=O)/C=C/c2ccc(OC)c(OCc3ccccc3)c2)c(OC)c1
TGI [1]: > 100 µM | TGI [2]: > 100 µM | TGI [3]: > 100 µM | TGI [8]: > 100 µM | TGI [9]: > 100 µM | TGI [4]: > 100 µM | TGI [5]: 1.76 µM | TGI [6]: > 100 µM | TGI [7]: > 100 µM

N#CC(/C(CCCC(=O)Nc1cccc([N+](=O)[O-])c1)=N\NC(=O)c1c(O)ccc2ccccc12)c1nc2ccccc2s1 (stereo not given)
TGI [1]: > 100 µM | TGI [2]: > 100 µM | TGI [3]: > 100 µM | TGI [8]: 66.3 µM | TGI [9]: > 100 µM | TGI [4]: > 100 µM | TGI [5]: 68.3 µM | TGI [6]: > 100 µM | TGI [7]: > 100 µM

O=C(CCc1ccccc1)CC1OC(=O)C(Cl)=C1Cl (stereo not given)
TGI [1]: 36.1 µM | TGI [2]: 38.3 µM | TGI [3]: 31 µM | TGI [8]: 76.7 µM | TGI [9]: 58.2 µM | TGI [4]: 59.1 µM | TGI [5]: 44 µM | TGI [6]: 29.4 µM | TGI [7]: 32.8 µM

COc1ccc(C(=O)C(C(=O)C(=O)NCCCNC(=O)C(=O)C(C(=O)c2ccc(OC)cc2)c2ccc(OC)cc2)c2ccc(OC)cc2)cc1 (stereo not given)
TGI [1]: > 100 µM | TGI [3]: > 100 µM | TGI [8]: > 100 µM | TGI [9]: > 100 µM | TGI [5]: > 100 µM | TGI [6]: > 100 µM | TGI [7]: > 100 µM

CC(=O)C1C(=O)C(=O)N(CCN2C(=O)C(=O)C(C(C)=O)C2=O)C1=O (stereo not given)
TGI [1]: > 100 µM | TGI [2]: > 100 µM | TGI [3]: > 100 µM | TGI [8]: > 100 µM | TGI [9]: > 100 µM | TGI [4]: > 100 µM | TGI [5]: > 100 µM | TGI [6]: > 100 µM

CN(C)N=Nc1ccc(S(N)(=O)=O)cc1
TGI [1]: > 100 µM | TGI [2]: > 100 µM | TGI [3]: > 100 µM | TGI [8]: > 100 µM | TGI [9]: > 100 µM | TGI [4]: > 100 µM | TGI [5]: > 100 µM | TGI [7]: > 100 µM

Cc1ccc(S(=O)(=O)C2CC2(Cl)Cl)cc1 (stereo not given)
TGI [1]: > 100 µM | TGI [2]: 35.8 µM | TGI [3]: 29.2 µM | TGI [8]: > 100 µM | TGI [9]: 37.5 µM | TGI [4]: 86.1 µM | TGI [5]: > 100 µM | TGI [6]: 34 µM | TGI [7]: 61.1 µM

CSc1nnc(C(C#N)C#N)nn1
TGI [2]: > 100 µM | TGI [3]: > 100 µM | TGI [8]: > 100 µM | TGI [9]: > 100 µM | TGI [4]: > 100 µM | TGI [5]: > 100 µM | TGI [6]: > 100 µM | TGI [7]: > 100 µM

Cc1ccc(S(=O)(=O)NNS(C)(=O)=O)cc1
TGI [1]: > 100 µM | TGI [2]: > 100 µM | TGI [3]: > 100 µM | TGI [8]: > 100 µM | TGI [9]: > 100 µM | TGI [4]: > 100 µM | TGI [5]: > 100 µM | TGI [6]: > 100 µM | TGI [7]: > 100 µM

Cc1ccc(Nc2nc(-c3ccc(-c4ccc([N+](=O)[O-])cc4)o3)cs2)cc1
TGI [1]: > 100 µM | TGI [2]: > 100 µM | TGI [3]: > 100 µM | TGI [8]: > 100 µM | TGI [9]: > 100 µM | TGI [4]: > 100 µM | TGI [5]: > 100 µM | TGI [6]: > 100 µM | TGI [7]: > 100 µM

CC(=O)Nc1ccc(/C=c2\sc3nnc(-c4cccnc4)n3c2=O)cc1
TGI [1]: 46.4 µM | TGI [2]: 31 µM | TGI [3]: 39.2 µM | TGI [8]: 33.3 µM | TGI [9]: 34.5 µM | TGI [4]: 35.3 µM | TGI [5]: 68.5 µM | TGI [6]: 30.8 µM | TGI [7]: 40.7 µM

COc1cc(C2NC(=O)C(C#N)=C(Nc3cccc(C)c3)S2)ccc1O (stereo not given)
GI50 [1]: > 100 µM | TGI [1]: > 100 µM | GI50 [10]: > 100 µM | TGI [10]: > 100 µM | GI50 [2]: > 100 µM | TGI [2]: > 100 µM | GI50 [3]: > 100 µM | TGI [3]: > 100 µM | GI50 [8]: > 100 µM | TGI [8]: > 100 µM | GI50 [9]: > 100 µM | TGI [9]: > 100 µM | GI50 [4]: > 100 µM | TGI [4]: > 100 µM

CC1=C2C=CC(=O)C[C@@]2(C)CCC1
TGI [1]: > 100 µM | TGI [2]: > 100 µM | TGI [3]: > 100 µM | TGI [8]: > 100 µM | TGI [9]: > 100 µM | TGI [4]: > 100 µM | TGI [5]: > 100 µM | TGI [6]: > 100 µM | TGI [7]: > 100 µM

COc1ccc(/C=C/c2ccnc3ccccc23)cc1OC
TGI [1]: 39 µM | TGI [10]: 21.6 µM | TGI [2]: 62.1 µM | TGI [3]: 34.9 µM | TGI [8]: 30 µM | TGI [9]: 27.4 µM | TGI [4]: 29.3 µM

C=C(C)C(=O)Nc1ccc(-c2c(-c3ccc(Oc4nccc(C)n4)c(F)c3)c3c(N)ncnc3n2C)cc1
GI50 [1]: 2.7 µM | TGI [1]: 9.74 µM | GI50 [10]: 3.55 µM | TGI [10]: 16.1 µM | GI50 [2]: 2.63 µM | TGI [2]: 17.2 µM | GI50 [3]: 5.64 µM | TGI [3]: 20 µM | GI50 [8]: 1.88 µM | TGI [8]: 8.89 µM | GI50 [9]: 3.22 µM | TGI [9]: 14.2 µM | GI50 [4]: 1.92 µM | TGI [4]: 8.23 µM

O=C1[C@@H]2C(c3ccccc3[N+](=O)[O-])=NO[C@@H]2C(=O)N1c1ccc(Cc2ccc(N3C(=O)[C@H]4C(c5ccccc5[N+](=O)[O-])=NO[C@H]4C3=O)cc2)cc1
TGI [2]: > 100 µM | TGI [3]: > 100 µM | TGI [8]: > 100 µM | TGI [9]: > 100 µM | TGI [4]: > 100 µM | TGI [6]: > 100 µM | TGI [7]: > 100 µM

Cc1[nH]c2cc([N+](=O)[O-])ccc2c1[N+](=O)[O-]
TGI [1]: 31 µM | TGI [2]: 95 µM | TGI [3]: 44 µM | TGI [8]: 57.1 µM | TGI [9]: 97 µM | TGI [4]: 47.1 µM | TGI [6]: 48.3 µM | TGI [7]: > 100 µM

— PubChem BioAssay (NCI)
